Experimental data as given in patent publication EP0249394B1 (THE UNITED STATES OF AMERICA as represented by the …, priority 1986, dated 1993).

Test system: T4 viral receptors
Test: General statements: binding to T4 viral receptors / inhibition of gp 120 binding to brain membranes
Experimental: Radiolabeling of gp 120, Preparation of Brain Membranes, Binding and Crosslinking of gp120 to Receptor, and Immunoprecipitation of T4 Antigen. HTLV-IIIb isolate of HIV was propaged in H9 cells, and the gp120 was isolated by immunoaffinity chromatography and preparative NaDodSO₄/PAGE. Purified gp120 was labeled with ¹²⁵I by the chloramine-T method.
Fresh human, monkey, and rat hippocampus were quickly homogenized (Polytron, Brinkmann Instruments) in 100 vol of ice-cold 50 mM Hepes (pH 7.4). The membranes collected by centrifugation (15,000 x g) were washed in the original buffer volume and were used fresh or stored at -70°C. Before use, brain membranes and highly purified T cells (ref. 16; gift of Larry Wahl) were preincubated for 15-30 min in phosphate-buffered saline (PBS). Membranes derived from 2mg (initial wet weight) of brain (≈100µg of protein) were incubated with 28,000 cpm of ¹²⁵I-gp120 for 1 hr at 37°C in 200 µl (final volume) of 50 mM Hepes containing 0.1% bovine serum albumin and the peptidase inhibitors bacitracin (0.005%), aprotinin (0.005%), leupeptin (0.001%), and chymostatin (0.001%). Incubations were rapidly vacuum-filtered and counted to determine the receptor-bound material.

**Q.** For “CYS-THR-THR-ASN-TYR-THR-CYS (CTTNYTC; printed: CYS-THR-THR-ASN-TYR-THR-CYS) [seven amino acid peptide]”, which “activity (test not specified)” value is on record?
**A.** The value was “active”.
